PubChem BioAssay (NCI)
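GI50: concentration for 50% inhibition of growth. TGI is the concentration that stops growth completely.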

What was measured:
Experiment in all cases: NCI anticancer screen, dose series, 384-well format; in the data active means GI50 below about 0.43 µM; inactive means the rest
786-0 renal = tested on: 786-0 renal
A498 renal = tested on: A498 renal
A549 NSCLC = tested on: A549 NSCLC
ACHN renal = tested on: ACHN renal
BT-549 breast = tested on: BT-549 breast
CAKI-1 renal = tested on: CAKI-1 renal
CCRF-CEM leukemia = tested on: CCRF-CEM leukemia
COLO 205 colon = tested on: COLO 205 colon
DU-145 prostate = tested on: DU-145 prostate
HCC-2998 colon = tested on: HCC-2998 colon
HCT-116 colon = tested on: HCT-116 colon
HCT-15 colon = tested on: HCT-15 colon
HL-60(TB) leukemia = tested on: HL-60(TB) leukemia
HOP-62 NSCLC = tested on: HOP-62 NSCLC
HOP-92 NSCLC = tested on: HOP-92 NSCLC
HT29 colon = tested on: HT29 colon
IGROV1 ovarian = tested on: IGROV1 ovarian
K-562 leukemia = tested on: K-562 leukemia
KM12 colon = tested on: KM12 colon
LOX IMVI melanoma = tested on: LOX IMVI melanoma
M14 melanoma = tested on: M14 melanoma
MCF7 breast = tested on: MCF7 breast
MDA-MB-468 breast = tested on: MDA-MB-468 breast
NCI-H226 lung = tested on: NCI-H226 lung
NCI-H23 lung = tested on: NCI-H23 lung
NCI-H460 NSCLC = tested on: NCI-H460 NSCLC
NCI-H522 lung = tested on: NCI-H522 lung
NCI/ADR-RES ovarian = tested on: NCI/ADR-RES ovarian
OVCAR-3 ovarian = tested on: OVCAR-3 ovarian
OVCAR-8 ovarian = tested on: OVCAR-8 ovarian
RPMI-8226 leukemia = tested on: RPMI-8226 leukemia
SF-268 CNS = tested on: SF-268 CNS
SF-295 CNS = tested on: SF-295 CNS
SF-539 CNS = tested on: SF-539 CNS
SK-MEL-2 melanoma = tested on: SK-MEL-2 melanoma
SK-MEL-28 melanoma = tested on: SK-MEL-28 melanoma
SK-MEL-5 melanoma = tested on: SK-MEL-5 melanoma
SK-OV-3 ovarian = tested on: SK-OV-3 ovarian
SN12C renal = tested on: SN12C renal
SNB-19 CNS = tested on: SNB-19 CNS
SNB-75 CNS = tested on: SNB-75 CNS
SR leukemia = tested on: SR leukemia
SW-620 colon = tested on: SW-620 colon
U251 glioblastoma = tested on: U251 glioblastoma
UACC-257 melanoma = tested on: UACC-257 melanoma
UACC-62 melanoma = tested on: UACC-62 melanoma
UO-31 renal = tested on: UO-31 renal

Nc1ccn(C2OC(CO)C(O)C2O)c(=O)n1 (stereo not drawn)
inactive: GI50 (BT-549 breast) 602 nM | GI50 (CAKI-1 renal) 446 nM | GI50 (DU-145 prostate) 501 nM | GI50 (HOP-92 NSCLC) 10600 nM | GI50 (HT29 colon) 1480 nM | GI50 (IGROV1 ovarian) 2390 nM | GI50 (KM12 colon) 6670 nM | GI50 (MDA-MB-468 breast) 1140 nM | GI50 (NCI-H226 lung) 1740 nM | GI50 (NCI/ADR-RES ovarian) 446 nM | GI50 (OVCAR-3 ovarian) 6700 nM | GI50 (RPMI-8226 leukemia) 3490 nM | GI50 (SF-268 CNS) 1030 nM | GI50 (SF-295 CNS) 2140 nM | GI50 (SF-539 CNS) 1800 nM | GI50 (SK-MEL-2 melanoma) > 21400 nM | GI50 (SK-OV-3 ovarian) 1890 nM | GI50 (SN12C renal) 1240 nM | GI50 (SNB-19 CNS) 738 nM | GI50 (SNB-75 CNS) 8640 nM | GI50 (SW-620 colon) 581 nM | GI50 (U251 glioblastoma) 1060 nM | GI50 (UACC-257 melanoma) 2230 nM | GI50 (UACC-62 melanoma) 732 nM
759 nM: TGI (HL-60(TB) leukemia)
12000 nM: TGI (SF-295 CNS)
366 nM: TGI (NCI-H460 NSCLC)
> 30800 nM: TGI (DU-145 prostate)
1010 nM: TGI (NCI-H23 lung)
> 27200 nM: TGI (SNB-19 CNS)
1950 nM: TGI (M14 melanoma)
790 nM: TGI (SK-MEL-5 melanoma)
1110 nM: TGI (ACHN renal)
active: GI50 ([…]-0 renal) 218 nM | GI50 (A498 renal) 270 nM | GI50 (A549 NSCLC) 75.1 nM | GI50 (ACHN renal) 196 nM | GI50 (CCRF-CEM leukemia) < 13.7 nM | GI50 (COLO 205 colon) 58.8 nM | GI50 (HCC-2998 colon) 84.7 nM | GI50 (HCT-116 colon) 69.5 nM | GI50 (HCT-15 colon) 328 nM | GI50 (HL-60(TB) leukemia) 182 nM | GI50 (HOP-62 NSCLC) 63.9 nM | GI50 (K-562 leukemia) 155 nM | GI50 (LOX IMVI melanoma) 286 nM | GI50 (M14 melanoma) 148 nM | GI50 (MCF7 breast) 99.1 nM | GI50 (NCI-H23 lung) 106 nM | GI50 (NCI-H460 NSCLC) 34.3 nM | GI50 (NCI-H522 lung) 85.8 nM | GI50 (OVCAR-8 ovarian) 102 nM | GI50 (SK-MEL-28 melanoma) 171 nM | GI50 (SK-MEL-5 melanoma) 249 nM | GI50 (SR leukemia) 103 nM | GI50 (UO-31 renal) 406 nM
20.5 nM: TGI (CCRF-CEM leukemia)
> 42500 nM: TGI (UACC-257 melanoma)
235 nM: TGI (SR leukemia)
2640 nM: TGI (COLO 205 colon)
> 95600 nM: TGI (SF-539 CNS)
9950 nM: TGI (LOX IMVI melanoma)
706 nM: TGI (HOP-62 NSCLC)
